From article PMC11206913, “Amoebicidal Effect of COVID Box Molecules against Acanthamoeba: A Study of Cell Death” (Pharmaceuticals, 2024)

How the values were obtained:
Acanthamoeba culbertsoni [1] = assay: ATP assay, CellTiter-Glo; assay type: cell-based; conditions: IC90, 24 h of treatment
Method: (§1) Acanthamoeba culbertsoni cells were incubated with IC90 of Terconazole for 24 h. All mean fluorescence intensities were quantified using EVOS M5000 (Life Technologies, Madrid, Spain), processing three different observations in triplicate using an objective (×40), and images of single cells were obtained by a Leica DMI 4000 B inverted confocal microscope with a 63× objective (Leica Microsystems, Germany). All assays were performed in triplicate.
After 24 h of drug treatment, the intracellular ATP content was measured using a CellTiter-Glo Luminescent Cell Viability Assay (Promega, Madison, WI, USA). The experiment was carried out according to the manufacturer’s instructions, and the luminescence intensity was measured in a white 96-well plate using an EnSpire® Multimode Plate Reader.

Acanthamoeba culbertsoni [2] = assay: Plasma membrane permeability, SYTOX Green; assay type: cell-based; conditions: IC90, 24 h
Method: as §1
The effect of the study drug on the cell’s membrane permeability was assessed using specific DNA staining. SYTOX® Green (Molecular Probes, Invitrogen, Madrid, Spain) is a DNA-specific dye impermeable to the cells, whose fluorescence increases 500× upon fixation to the DNA. Briefly, […] trophozoites were incubated for 24 h with IC90 of the drug solution. Subsequently, the SYTOX® Green dye was added at a final concentration of 1 μM for 15 min in the dark.

[3] = system: Acanthamoeba culbertsoni trophozoites; assay: Actin staining with phalloidin-TRITC; assay type: cell-based; conditions: IC90
Method: As in the immunofluorescence staining, cells were first treated with IC90 of Terconazole and fixed with formaldehyde (4%) over a gelatin-precoated coverslip. Later, the cells were permeabilized with Triton (0.1%), followed by a 1 h incubation with phalloidin–tetramethylrhodamine B isothiocyanate (phalloidin-TRITC; Sigma-Aldrich, Madrid, Spain) at room temperature. Cells were finally washed with PBS 1X and mounted using mounting medium with DAPI. Cells were examined by Z-stack imaging using a Leica DMI 4000 B inverted confocal microscope with a 63× objective (Leica Microsystems, Wetzlar, Germany), a 405 nm laser, and a 532 nm laser.

[4] = system: Acanthamoeba culbertsoni trophozoites; assay: Mitochondrial membrane potential, JC-1 dye; assay type: cell-based; conditions: IC90, 24 h
Method: as §1
Based on the JC-1 state and the emitted fluorescence, we distinguished two sets in the cellular population: live cells emit high red fluorescence and affected cells with collapsed mitochondrial membrane potential emit a higher green fluorescence.

Acanthamoeba culbertsoni [5] = assay: Chromatin condensation, Hoechst 33342/PI double stain; assay type: cell-based; conditions: IC90, 24 h
Method: as §1
A double-stain apoptosis detection kit (Chromatin Condensation/Dead Cell Apoptosis Kit) with Hoechst 33342 and Propidium Iodide (Invitrogen, Madrid, Spain) were used. The experiment was carried out by following the manufacturer’s recommendations.

Naegleria fowleri = system: Naegleria fowleri; parameters: method as in PMID 38718717; conditions: previous work of the authors; read-out: IC50 against Naegleria fowleri; cited from earlier work
[6] = system: Acanthamoeba culbertsoni trophozoites; assay: Immunofluorescence staining of tubulin; assay type: cell-based; conditions: IC90, 24 h
Method: Immunofluorescence staining of tubulin was performed according to the manufacturer’s staining procedure (Sigma-Aldrich, Madrid, Spain) with slight modifications. Briefly, cells were treated first with Terconazole at IC90. After 24 h of incubation, 50 µL of treated and untreated cell suspensions was placed on a gelatin precoated coverslip for 30 min. Cells were first fixed with formaldehyde (4%) and later permeabilized with Triton (0.3%) for 10 min. Washed with PBS (3X), cells were treated with 5% BSA in PBS 1X/150 mM sucrose for 30 min and washed with glycine 100 mM. At this stage, the trophozoites were incubated with a monoclonal antibody, Anti-α-Tubulin (1:2000), for 2 h at room temperature. Washed twice with PBS, cells were then incubated with the second antibody labeled with Alexa 594 (1:500; from Thermo Fisher Scientific, Rockford, IL, USA) for an hour at room temperature in darkness. Finally, cells were washed with PBS 1X and mounted using mounting medium with DAPI (Sigma-Aldrich; Madrid, Spain). Three-dimensional and maximum projection imaging of the trophozoites was performed by Z-stack imaging using a Leica DMI 4000 B inverted confocal microscope with LAS X software (Leica DMI 4000 B inverted confocal microscope), a 405 nm laser and a 532 nm laser, and a Leica HCX PL Apo 63× Oil Objective.

[7] = system: A. polyphaga trophozoites; assay: Trophocidal activity, alamarBlue assay; assay type: cell-based; conditions: Acanthamoeba polyphaga, read-out: IC50 trophocidal effect
Method: (§2) The trophocidal effect of the 160 molecules from the COVID Box was determined using the alamarBlue™ (Life Technologies, Madrid, Spain) assay as previously described with modifications. Briefly, Acanthamoeba castellanii Neff trophozoites were first seeded in triplicate on a 96-well microtiter plate with 99 μL from a stock solution of 5 × 10^4 cells mL^−1. Subsequently, 1 μL of each compound was added to each well to assess the in vitro amoebicidal activity at 10 μM as the final concentration. Finally, 10 µL of alamarBlue™ Cell Viability Reagent (Bioresource, Europe, Nivelles, Belgium) was added into each well. The plates were then incubated for 96 h at 28 °C with a slight agitation. An EnSpire microplate reader (PerkinElmer, Waltham, MA, USA) was used to measure fluorescence at 570/585 nm. Then, the percentage of inhibition value of the tested COVID Box compounds was determined in comparison with the negative control.
(§3) Almitrine and Terconazole were the COVID Box products selected to evaluate the amoebicidal effect against the trophozoite stage of […] strains of Acanthamoeba: A. castellanii Neff, A. griffini, A. polyphaga, A. culbertsoni, and A. castellanii L10. The inhibition concentration 50 (IC50) value was calculated based on the alamarBlue™ assay, as previously mentioned.

[8] = system: A. castellanii L10 trophozoites; assay: Trophocidal activity, alamarBlue assay; assay type: cell-based; conditions: Acanthamoeba castellanii, read-out: IC50 trophocidal effect
Method: as §2, §3

A. polyphaga cysts = assay: Cysticidal activity, alamarBlue method; assay type: cell-based; conditions: Acanthamoeba polyphaga, read-out: IC50 cysticidal effect
Method: (§4) Based on the amoebicidal and cytotoxicity results, the selected compounds, Almitrine and Terconazole, were further investigated on the cyst stage of the various Acanthamoeba strains: A. castellanii Neff, A. griffini, A. polyphaga, A. culbertsoni, and A. castellanii L-10. The cysticidal activity was assessed by the alamarBlue™ method, as described previously. Briefly, in a 96-well plate, a serial dilution of the mentioned drugs was first conducted. Later, cysts were resuspended in PYG medium and were added into each well at a concentration of 5 × 10^4 cysts mL^−1. The plates were examined over a week using an inverted microscope. After 7 days of incubation, the plates were centrifuged at 3000 rpm and the medium was replaced with a new PYG. Finally, 10 μL of alamarBlue^TM Cell Viability Reagent (Biosource, Europe, Nivelles, Belgium) was placed into each well, and the plates were incubated at 28 °C with slight agitation. The emitted fluorescence was measured after 144 h.

[9] = system: A. castellanii Neff cysts; assay: Cysticidal activity, alamarBlue method; assay type: cell-based; conditions: Acanthamoeba castellanii, read-out: IC50 cysticidal effect
Method: as §4

[10] = system: Acanthamoeba culbertsoni trophozoites; assay: ROS generation, CellROX Deep Red staining; assay type: cell-based; conditions: IC90, 24 h
Method: as §1
The overproduction of intracellular ROS was measured using the CellROX® Deep red fluorescent probe (Invitrogen, Madrid, Spain).

[11] = system: Acanthamoeba castellanii L10 trophozoites; assay: Comparative label-free proteomics; assay type: cell-based; conditions: IC50, 24 h
Method: The proteomic analysis was conducted according to Arbon et al., 2022 [39]. A quantity of 10^6 cells was first incubated with Terconazole at IC50 for 24 h, then treated and untreated cells were centrifuged and washed with PBS. Both groups were prepared in three biological replicates. The assay was conducted as detailed in our previous work. Results were analyzed using STRING free software and GraphPad 9 prism (Supplementary Material File S2).

A. castellanii L10 cysts = assay: Cysticidal activity, alamarBlue method; assay type: cell-based, Acanthamoeba castellanii L10; conditions: Acanthamoeba castellanii, read-out: IC50 cysticidal effect
Method: as §4

[12] = system: murine macrophages J774A.1; assay: Cytotoxicity against murine macrophages, alamarBlue; assay type: cell-based
Method: The cytotoxicity of the COVID Box compounds was evaluated against murine macrophages of the J774A.1 cell line (ATCC TIB-67), as previously described. As mentioned in the trophocidal assay, cells were allowed to adhere on a 96-well plate in 37 °C in a 5% CO2 humidified incubator. Later, a well-defined volume of the compounds was added at an affinal concentration of 10 µM to each well. Fluorescence emitted by the alamarBlue^TM was measured after 24 h of incubation and the percentage inhibition value was determined. The Cytotoxicity Concentration 50 (CC50) value of Almitrine and Terconazole was determined following the same method described previously for the trophocidal effect.

[13] = system: Acanthamoeba culbertsoni trophozoites; assay: Trophocidal activity, alamarBlue assay; assay type: cell-based; conditions: read-out: IC50 trophocidal effect
Method: as §2, §3

A. griffini trophozoites = assay: Trophocidal activity, alamarBlue assay; assay type: cell-based; conditions: Acanthamoeba griffini, read-out: IC50 trophocidal effect
Method: as §2, §3

Solubility (remark) = assay type: physicochemical; conditions: reason for discarding

Q: What does the source list for CC(C)N1CCN(c2ccc(OCC3COC(Cn4cncn4)(c4ccc(Cl)cc4Cl)O3)cc2)CC1 (stereo not drawn) [Terconazole]?
A: inhibition in the total ATP level relative to negative control (Acanthamoeba culbertsoni [1]): 62.5 ± 2.36%; plasma membrane permeability (SYTOX green fluorescence) (Acanthamoeba culbertsoni [2]): statistically higher green fluorescence than the negative control; actin distribution (phalloidin-TRITC fluorescence) [3]: lower fluorescence than the untreated cells; decrease in the MMP (ratio red/green JC-1 fluorescence) compared to untreated cells [4]: 50%; chromatin condensation (Hoechst/PI staining) (Acanthamoeba culbertsoni [5]): presence of intensely bright blue, fluorescent cells; IC50 (Naegleria fowleri): 3.68 ± 0.61 µM; tubulin network (immunofluorescence) [6]: highly reduced cell shape with lower fluorescence; IC50 [7]: 4.62 µM; IC50 [8]: 9.07 µM; IC50 (A. polyphaga cysts): 2240 ± 500 nM; IC50 [9]: 10.2 ± 2.01 µM; ROS production (CellROX Deep Red fluorescence) [10]: significantly higher fluorescence than the untreated cells; affected proteins activated [11]: 20%; affected proteins downregulated [11]: 80%; proteins at least twofold differentially expressed ([11]; of 4566 identified proteins): 223 proteins

Q: Which IC50 (A. castellanii L10 cysts) does the source give for C=CCNc1nc(NCC=C)nc(N2CCN(C(c3ccc(F)cc3)c3ccc(F)cc3)CC2)n1 [Almitrine] here?
A: The IC50 was 8.76 ± 0.07 µM.

Q: What about the “cytotoxicity compared between the two drugs” value [12] of the same compound?
A: The value was “lower cytotoxicity than Terconazole”.

Q: What about the IC50 [13] of the same compound?
A: The IC50 was 32.08 ± 0.06 µM.

Q: And the IC50 (A. griffini trophozoites)?
A: Its IC50 is 5.2 ± 0.4 µM.

Q: What about the solubility (Solubility (remark)) of the same compound?
A: Its solubility is “low solubility”.

Q: What about the IC50 [9] of the same compound?
A: Its IC50 is 51.7 ± 2.13 µM.
